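Results reflect a 48-hour exposure of cells in 96-well plates to compound at five concentrations. Abbreviation: GI50, concentration required for 50% inhibition of growth. The concentration for full growth arrest is given as TGI.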
Assays:
Assay in all cases: growth of human tumour cells (NCI), 48 h
[1] = test system: MDA-MB-231 breast
[2] = test system: SK-OV-3 ovarian
[3] = test system: NCI-H23 lung
[4] = test system: KM12 colon
[5] = test system: MDA-MB-435
[6] = test system: CAKI-1 renal
[7] = test system: 786-0 renal
[8] = test system: OVCAR-5 ovarian
[9] = test system: HOP-92 NSCLC
[10] = test system: SNB-19 CNS
[11] = test system: SK-MEL-5 melanoma
[12] = test system: U251 CNS
[13] = test system: HCT-116 colon
[14] = test system: A498 renal
[15] = test system: SN12C renal
[16] = test system: UO-31 renal
[17] = test system: SF-539 CNS
[18] = test system: UACC-257 melanoma
[19] = test system: A549 NSCLC
[20] = test system: HS 578T breast
[21] = test system: LOX IMVI melanoma
[22] = test system: NCI-H226 lung
[23] = test system: SK-MEL-2 melanoma
[24] = test system: RXF 393 renal
[25] = test system: HL-60(TB) leukemia
[26] = test system: TK-10 renal
[27] = test system: EKVX NSCLC
[28] = test system: MOLT-4 leukemia
[29] = test system: OVCAR-3 ovarian
[30] = test system: SW-620 colon
[31] = test system: SF-295 CNS
[32] = test system: HOP-62 NSCLC
[33] = test system: PC-3 prostate
[34] = test system: HT29 colon
[35] = test system: COLO 205 colon
[36] = test system: SF-268 CNS
[37] = test system: K-562 leukemia
[38] = test system: SNB-75 CNS
[39] = test system: OVCAR-8 ovarian
[40] = test system: RPMI-8226 leukemia
[41] = test system: SK-MEL-28 melanoma
[42] = test system: ACHN renal
[43] = test system: T-47D breast
[44] = test system: MCF7 breast
[45] = test system: MALME-3M melanoma
[46] = test system: HCT-15 colon
[47] = test system: BT-549 breast
[48] = test system: NCI/ADR-RES ovarian
[49] = test system: CCRF-CEM leukemia
[50] = test system: UACC-62 melanoma
[51] = test system: DU-145 prostate
[52] = test system: OVCAR-4 ovarian
[53] = test system: HCC-2998 colon
[54] = test system: NCI-H460 lung

Q: Which GI50 [1] does the source give for Ic1ccc2[nH]cc(SSc3c[nH]c4ccc(I)cc34)c2c1 here?
A: Its GI50 is 2100 nM.

Q: What about the TGI [1] of the same molecule?
A: The TGI was 5.13 µM.

Q: What about the GI50 [2] of the same molecule?
A: Its GI50 is 3.46 µM.

Q: And the TGI [2]?
A: The TGI was 11.7 µM.

Q: And the GI50 [3]?
A: Its GI50 is 2360 nM.

Q: What about the TGI [3] of the same molecule?
A: The TGI was 7.96 µM.

Q: And the GI50 [4]?
A: Its GI50 is 1500 nM.

Q: And the TGI [4]?
A: Its TGI is 5.83 µM.

Q: What about the GI50 [5] of the same molecule?
A: Its GI50 is 2840 nM.

Q: What about the TGI [5] of the same molecule?
A: Its TGI is 8.97 µM.

Q: What about the GI50 [6] of the same molecule?
A: Its GI50 is 2230 nM.

Q: What about the TGI [6] of the same molecule?
A: The TGI was 6.3 µM.

Q: And the GI50 [7]?
A: Its GI50 is 3.49 µM.

Q: And the TGI [7]?
A: Its TGI is 12.4 µM.

Q: And the GI50 [8]?
A: The GI50 was 2380 nM.

Q: What about the TGI [8] of the same molecule?
A: Its TGI is 6.11 µM.

Q: What about the GI50 [9] of the same molecule?
A: The GI50 was 936 nM.

Q: And the TGI [9]?
A: Its TGI is 3.69 µM.

Q: And the GI50 [10]?
A: The GI50 was 3.25 µM.

Q: And the TGI [10]?
A: The TGI was 11.9 µM.

Q: What about the GI50 [11] of the same molecule?
A: Its GI50 is 3.18 µM.

Q: What about the TGI [11] of the same molecule?
A: Its TGI is 13.5 µM.

Q: And the GI50 [12]?
A: The GI50 was 2250 nM.

Q: And the TGI [12]?
A: Its TGI is 10.1 µM.

Q: What about the GI50 [13] of the same molecule?
A: Its GI50 is 1250 nM.

Q: What about the TGI [13] of the same molecule?
A: Its TGI is 3.08 µM.

Q: And the GI50 [14]?
A: The GI50 was 2060 nM.

Q: What about the TGI [14] of the same molecule?
A: Its TGI is 5.97 µM.

Q: And the GI50 [15]?
A: The GI50 was 2860 nM.

Q: And the TGI [15]?
A: The TGI was 11 µM.

Q: What about the GI50 [16] of the same molecule?
A: Its GI50 is 3.06 µM.

Q: What about the TGI [16] of the same molecule?
A: The TGI was 17.3 µM.

Q: And the GI50 [17]?
A: The GI50 was 2390 nM.

Q: And the TGI [17]?
A: Its TGI is 9.29 µM.

Q: And the GI50 [18]?
A: The GI50 was 2790 nM.

Q: What about the TGI [18] of the same molecule?
A: The TGI was 6.74 µM.

Q: And the GI50 [19]?
A: Its GI50 is 3.65 µM.

Q: What about the TGI [19] of the same molecule?
A: The TGI was 12 µM.

Q: What about the GI50 [20] of the same molecule?
A: Its GI50 is 1930 nM.

Q: What about the TGI [20] of the same molecule?
A: The TGI was 6.24 µM.

Q: And the GI50 [21]?
A: The GI50 was 1430 nM.

Q: And the TGI [21]?
A: The TGI was 3.51 µM.

Q: What about the GI50 [22] of the same molecule?
A: The GI50 was 1980 nM.

Q: What about the TGI [22] of the same molecule?
A: Its TGI is 9.35 µM.

Q: And the GI50 [23]?
A: Its GI50 is 2300 nM.

Q: And the TGI [23]?
A: Its TGI is 6.96 µM.

Q: What about the GI50 [24] of the same molecule?
A: Its GI50 is 1500 nM.

Q: And the TGI [24]?
A: The TGI was 5.68 µM.

Q: And the GI50 [25]?
A: Its GI50 is 1180 nM.

Q: And the TGI [25]?
A: Its TGI is 3.56 µM.

Q: And the GI50 [26]?
A: The GI50 was 2880 nM.

Q: And the TGI [26]?
A: The TGI was 10.1 µM.

Q: And the GI50 [27]?
A: Its GI50 is 1200 nM.

Q: What about the TGI [27] of the same molecule?
A: Its TGI is 10.1 µM.

Q: What about the GI50 [28] of the same molecule?
A: The GI50 was 1700 nM.

Q: What about the TGI [28] of the same molecule?
A: The TGI was 4.62 µM.

Q: What about the GI50 [29] of the same molecule?
A: The GI50 was 1730 nM.

Q: What about the TGI [29] of the same molecule?
A: Its TGI is 5.56 µM.

Q: What about the GI50 [30] of the same molecule?
A: Its GI50 is 2740 nM.

Q: What about the TGI [30] of the same molecule?
A: Its TGI is 10.5 µM.

Q: And the GI50 [31]?
A: Its GI50 is 1890 nM.

Q: What about the TGI [31] of the same molecule?
A: Its TGI is 4.69 µM.

Q: And the GI50 [32]?
A: The GI50 was 3.14 µM.

Q: What about the TGI [32] of the same molecule?
A: Its TGI is 8.71 µM.

Q: What about the GI50 [33] of the same molecule?
A: Its GI50 is 492 nM.

Q: And the TGI [33]?
A: Its TGI is 4.65 µM.

Q: And the GI50 [34]?
A: The GI50 was 3.36 µM.

Q: And the TGI [34]?
A: Its TGI is 11.2 µM.

Q: What about the GI50 [35] of the same molecule?
A: Its GI50 is 1910 nM.

Q: What about the TGI [35] of the same molecule?
A: The TGI was 4.02 µM.

Q: And the GI50 [36]?
A: Its GI50 is 2990 nM.

Q: What about the TGI [36] of the same molecule?
A: Its TGI is 10.9 µM.

Q: What about the GI50 [37] of the same molecule?
A: The GI50 was 2000 nM.

Q: What about the TGI [37] of the same molecule?
A: Its TGI is 6.27 µM.

Q: What about the GI50 [38] of the same molecule?
A: The GI50 was 2360 nM.

Q: What about the TGI [38] of the same molecule?
A: Its TGI is 9.28 µM.

Q: What about the GI50 [39] of the same molecule?
A: Its GI50 is 3.77 µM.

Q: What about the TGI [39] of the same molecule?
A: Its TGI is 17.8 µM.

Q: And the GI50 [40]?
A: Its GI50 is 1780 nM.

Q: What about the TGI [40] of the same molecule?
A: Its TGI is 5.5 µM.

Q: What about the GI50 [41] of the same molecule?
A: Its GI50 is 3.36 µM.

Q: And the TGI [41]?
A: Its TGI is 12.6 µM.

Q: What about the GI50 [42] of the same molecule?
A: Its GI50 is 2250 nM.

Q: What about the TGI [42] of the same molecule?
A: The TGI was 6.99 µM.

Q: What about the GI50 [43] of the same molecule?
A: The GI50 was 2680 nM.

Q: What about the TGI [43] of the same molecule?
A: Its TGI is 11.2 µM.

Q: What about the GI50 [44] of the same molecule?
A: Its GI50 is 2690 nM.

Q: And the TGI [44]?
A: Its TGI is 11.6 µM.

Q: And the GI50 [45]?
A: The GI50 was 1920 nM.

Q: What about the TGI [45] of the same molecule?
A: Its TGI is 8.29 µM.

Q: And the GI50 [46]?
A: The GI50 was 2210 nM.

Q: What about the TGI [46] of the same molecule?
A: The TGI was 10.4 µM.

Q: And the GI50 [47]?
A: The GI50 was 1350 nM.

Q: And the TGI [47]?
A: Its TGI is 7.04 µM.

Q: What about the GI50 [48] of the same molecule?
A: Its GI50 is 2570 nM.

Q: What about the TGI [48] of the same molecule?
A: The TGI was 7.13 µM.

Q: And the GI50 [49]?
A: The GI50 was 1250 nM.

Q: And the TGI [49]?
A: The TGI was 3.48 µM.

Q: And the GI50 [50]?
A: The GI50 was 2700 nM.

Q: What about the TGI [50] of the same molecule?
A: The TGI was 11.5 µM.

Q: What about the GI50 [51] of the same molecule?
A: Its GI50 is 3.47 µM.

Q: What about the TGI [51] of the same molecule?
A: The TGI was 12.9 µM.

Q: And the GI50 [52]?
A: The GI50 was 3.02 µM.

Q: And the TGI [52]?
A: Its TGI is 16.6 µM.

Q: And the GI50 [53]?
A: Its GI50 is 2340 nM.

Q: What about the TGI [53] of the same molecule?
A: The TGI was 4.76 µM.

Q: And the GI50 [54]?
A: The GI50 was 2410 nM.

Q: And the TGI [54]?
A: The TGI was 6.52 µM.
